Test results as given in US10058608B2, “Compositions of vaccines and adjuvants and methods for the treatment of urinary tract infections” (priority 2013, dated 2018).

Assay: Forced degradation studies by TOF-MS
Assay type: physicochemical
Conditions: 0.5 mg/ml in potassium citrate, pH 8.1, 37° C.
Description: 0.5 mg/ml of PHAD was prepared in potassium citrate, pH 8.1 and stored at 37° C. pH 8.1 is outside the preferred ranges of the invention and induces degradation. Samples were prepared for analysis by the addition of 200 μL of CHCl3, 200 μL of methanol, and 100 μL of ammonium acetate in 80:20 methanol/water. After mixing the bottom layer was transferred and diluted with 100 μL of methanol. Samples were analyzed by electrospray time-of-flight (TOF) mass spectrometry (MS) in negative mode via direct infusion. […] In addition, those skilled in the art understand that various adduct ions may occur during each analysis from day to day. Therefore, molecular formulas are based upon the ions observed considering error of the system day to day. […] By Days 1, 7, 13, and 20 significant ions appear at 1309 and 1519 and continue to increase from Day 1 to Day 20. The MS ion at 1309 represents a loss of two acyl groups (molecular formula is C28H53O3; 437 Daltons) and the MS ion at 1519 represents a loss of a single acyl group (molecular formula is C14H27O2; 227 Daltons) from the diglucosamine scaffold. By Day 7, the mass intensity of the 1519 ion had increased to 46% of the mass intensity of the 1745 mass ion. On Day 0 the mass intensity of the 1519 ion was 4% of that of the 1745 mass ion.
0.5 mg/ml of 3-deacyl-phosphorylated hexaacyl disaccharide was prepared in potassium citrate, pH 8.1 and stored at 37° C. All preparation and analysis were conducted as listed in experiment 1. […] By Days 1, 13, and 22 a significant ion appeared at 1084 and continued to increase from Day 1 to Day 22. The MS ion at 1084 represents a loss of two acyl groups (molecular formula is C28H53O3; 437 Daltons) from the diglucosamine scaffold. By Day 13 the intensity of the 1084 mass ion had increased to 24% of the intensity of the 1521 mass ion. On Day 0 the intensity of the 1084 mass ion was 3% of the intensity of the 1521 mass ion. […] Phosphorylated hexaacyl disaccharide and 3-deacyl phosphorylated hexaacyl disaccharide primarily degrade by losing acyl groups. The formulations of the invention prevent the loss of these acyl groups.
Because it was both pure and abundant, the pentaacyl MLA component was chosen for examination of its degradation mechanism. […] The degradation experiment was conducted in PBS, pH 7.4 and stored at 37° C. This saline buffer system was selected because the use of saline is outside the preferred embodiments of the invention.

Substance | intensity of the 1084 mass ion relative to the 1521 mass ion (Day 0) [%] | intensity of the 1084 mass ion relative to the 1521 mass ion (Day 13) [%] | mass intensity of the 1519 ion relative to the 1745 mass ion (Day 0) [%] | mass intensity of the 1519 ion relative to the 1745 mass ion (Day 7) [%]
3-deacyl-phosphorylated hexaacyl disaccharide | 3 | 24 |  | 
phosphorylated hexaacyl disaccharide [PHAD] |  |  | 4 | 46
